The experiment has as its system CO2-laser-induced painful stimulus on UV(B) irradiated skin. As to the kind of experiment: Laser somatosensory evoked potentials (LSEP) analgesia study, peak-to-peak amplitude. The class given is in vivo, human. To be noted: for Estimate (difference between Treatment A and Treatment B), peak-to-peak LSEP amplitude: single oral dose, 24 subjects, cross-over; for Analgesic effectiveness versus placebo (peak-to-peak LSEP amplitudes), in words: FIG. 1 and Table C. How it is done: General Timing of Study: Each subject was treated on six different treatment days in a randomized, placebo-controlled, double-blind six sequence cross-over study, with each treatment being a different dosage combination of acetaminophen (“APAP”) and ibuprofen (“IBU”) administered in a random order. The total duration of the study per subject was about 46 days. The washout period between the six treatment days was about 7 days. About 2 to 14 days before receiving the first treatment, each subject participated in a one-day, pre-study examination visit.
On each treatment day, each subject stayed for approximately 7 hours at the treatment center, and followed the schedule set forth below in Table A:
Method of Pain Induction: A pulsed CO2 laser, which is commercially available from Synrad, Inc., under the tradename, “Synrad Infrared Gas Laser,” model E48−/−26W was used to induce painful stimuli in the desired skin location.
Evaluation of Pain Relief: Laser induced somatosensory evoked potentials (LSEPs), which served as an objective-quantitative measurement of pain, were generating using Vertex-EEG readings collected using a MUX800/UBV800 Multiplexer and universal bio-amplifier with integrated 15 Hz-impedance measurement, both of which are commercially available from Rimkus Medizintechnik. Twelve artifact free EEG-sections of 3 second duration were averaged in two steps: (1.) 3×4 original sweeps; and (2.) 3×1 averaged sweeps, digitally filtered (Gaussian phase-free software filter on the basis of a Fast Fourier Transform (FFT), with ranges from 1.0 Hz to 12.5 Hz (first step) and 1.5 to 10.0 Hz (second step)). Means were analyzed for a time window of 600 ms after laser stimulation to identify and measure the components of the evoked potentials (latencies and amplitudes). The N1 and P2 components, which are the pain related components of the EEG-signal, were derived as described above and analyzed in accordance with the procedure set forth in Schaffler K., et al., “Analgesic effects of low-dose intravenous orphenadrine in the state of capsaicin hyperalgesia. A randomised, placebo-controlled, double-blind cross-over study using laser somatosensory evoked potentials obtained from capsaicin-irritated skin in healthy volunteers,” 54(10) Arzneimittel-Forschung. 673-9 (2004). The N1-P2-peak-to peak amplitudes as well as the amplitudes of the individual N1 and P2 components were determined from the Vertex-EEG reading, and the correlated pain response was thereby determined in accordance with the procedure generally set forth in Seibel, K., et al., “Comparison of Two Different Preparations of Ibuprofen with Regard to the Time Course of their Analgesic Effect,” 54(8) Arnzeimittel-Forschung 444-51 (2004). The LSEP recording at hour −2:05 served as baseline (=t0). Drug induced analgesia was reflected by an amplitude reduction versus control or comparator treatment.
According to this procedure, a change in LSEP amplitude of about 1.0 to 3.0 μV was previously determined to be generally sufficient to allow for statistically significant discrimination between, for example, a given active agent vs. placebo, vs. other active agents, and/or vs. different dosages of the same active agent. An amplitude difference in the LSEP that exceeds about 2.0-2.5 μV (in peak-to-peak (PtP) amplitude) and > about 1.00-1.25 μV (for the single N1- and P2-components) was defined as clinically relevant.
The procedure set forth in Example 1 was independently performed on 24 subjects in a randomized, placebo-controlled, double-blind 6 sequence cross-over study. The six ibuprofen/acetaminophen treatments administered on the treatment days consisted of two white caplets and 4 red tablets comprised of the doses set forth in Table B: […]

[1] abbreviates: Treatment B = Placebo, over the treatment period.

The structures appear in SMILES notation.

`CC(C)Cc1ccc(C(C)C(=O)O)cc1` (centres unmarked) [IBU 400 mg, ibuprofen]: the “Analgesic effectiveness versus placebo (peak-to-peak LSEP amplitudes), in words” value is “significantly more effective analgesics than the placebo”. Moreover, the “Estimate (difference between Treatment A and Treatment B), peak-to-peak LSEP amplitude” value under setting [1] is −4.4134.

With `CC(=O)Nc1ccc(O)cc1` [APAP 1000 mg, acetaminophen], the “Analgesic effectiveness versus placebo (peak-to-peak LSEP amplitudes), in words” value is given as “significantly more effective analgesics than the placebo”. Moreover, the “Estimate (difference between Treatment A and Treatment B), peak-to-peak LSEP amplitude” value (Treatment B = APAP250 + IBU300) is recorded as 1.6417. In addition, the “Estimate (difference between Treatment A and Treatment B), peak-to-peak LSEP amplitude” value (Treatment B = APAP500 + IBU200) is recorded as 1.5389. Also, the “Estimate (difference between Treatment A and Treatment B), peak-to-peak LSEP amplitude” value (Treatment B = APAP750 + IBU100) was 2.7487. For the same molecule, the “Estimate (difference between Treatment A and Treatment B), peak-to-peak LSEP amplitude” value (Treatment B = IBU400) was 0.01133. Besides, the “Estimate (difference between Treatment A and Treatment B), peak-to-peak LSEP amplitude” value under setting [1] is −4.4020.

The values above are taken from US8580856B2, “Acetaminophen/ibuprofen combinations and method for their use” (McNeil-PPC, Inc., priority 2006, dated 2013).
